Test results published in patent US20010056101A1 (priority 1998, published 2001).
Read-outs that look alike come from different tables or passages of the source.

Columns and labels:
[1] = system: hO3 Receptor (Homo sapiens); conditions: for Intrinsic Activity: calculated from the Low/High ratio; for Ratio Low/High: ratio of affinity at low-affinity agonist state to high affinity agonist state; for Ki: read-out: Ki (nM) ± S.D
hO44 Receptor = biological target: T1, hO44 Receptor (Homo sapiens, UniProt P21917); conditions: for Ki / Intrinsic Activity / Ratio Low/High: hO44 Receptor; for Ratio Low/High: ratio of affinity at low-affinity agonist state to high affinity agonist state
T1 sequence (P21917 1-419): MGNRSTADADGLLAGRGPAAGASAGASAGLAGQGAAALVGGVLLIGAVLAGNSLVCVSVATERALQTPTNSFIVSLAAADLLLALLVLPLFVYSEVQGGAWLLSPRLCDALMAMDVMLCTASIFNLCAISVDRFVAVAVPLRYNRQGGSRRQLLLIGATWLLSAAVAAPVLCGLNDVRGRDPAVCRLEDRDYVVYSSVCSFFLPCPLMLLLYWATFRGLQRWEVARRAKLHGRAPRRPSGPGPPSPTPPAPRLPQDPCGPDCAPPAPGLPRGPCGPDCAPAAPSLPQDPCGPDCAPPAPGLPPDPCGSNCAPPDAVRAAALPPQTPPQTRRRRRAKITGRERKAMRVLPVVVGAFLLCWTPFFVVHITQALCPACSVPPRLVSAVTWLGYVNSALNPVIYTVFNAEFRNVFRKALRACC

hD3 (Homo sapiens) = assay: Affinity and intrinsic activity, Table 4; assay type: binding
hD3 (Homo sapiens), sequence (P14416 whole entry): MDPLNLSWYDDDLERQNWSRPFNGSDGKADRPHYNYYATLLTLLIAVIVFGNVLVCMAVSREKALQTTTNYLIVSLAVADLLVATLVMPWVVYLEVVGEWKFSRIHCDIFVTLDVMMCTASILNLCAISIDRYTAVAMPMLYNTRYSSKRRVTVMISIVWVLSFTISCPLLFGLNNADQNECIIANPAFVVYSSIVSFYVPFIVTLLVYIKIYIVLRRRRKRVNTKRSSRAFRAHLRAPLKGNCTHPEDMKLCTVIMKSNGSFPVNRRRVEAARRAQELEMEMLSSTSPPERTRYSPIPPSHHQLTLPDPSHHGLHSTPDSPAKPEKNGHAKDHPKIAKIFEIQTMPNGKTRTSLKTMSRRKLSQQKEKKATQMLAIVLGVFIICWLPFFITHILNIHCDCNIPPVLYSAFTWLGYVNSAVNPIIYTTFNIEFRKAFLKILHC

schizophrenia [2] = assay: Clinical antipsychotic efficacy, efficacy tolerance and side effects of dopamine agonists in schizophrenia; assay type: in vivo, human
[3] = system: actively psychotic schizophrenic persons; assay: Clinical test of (−)-3PPP plus haloperidol in actively psychotic schizophrenic persons, BPRS; assay type: in vivo, human; conditions: for Change in Total BPRS Score, mean: each arm with haloperidol 1 mg bid
Source text: This combination was designed to produce a lower IA (-)-3PPP, and thereby prolonging its antipsychotic activity. […] This dose of haloperidol may have delivered a measurable antipsychotic effect. […] (Table 5).

hD47 = biological target: T2, hD47 (Homo sapiens, UniProt P21917)
T2 sequence (P21917 1-419): T1 sequence (P21917 1-419)

schizophrenia [4] = conditions: cited from earlier work
[5] = system: L-DOPA-induced dyskinesia in Parkinson's disease; conditions: cited from earlier work
hD42 = biological target: T3, hD42 (Homo sapiens, UniProt P21917, DEL265-296); assay: biochemical
T3 sequence (P21917 with tags, fused parts or gaps DEL265-296): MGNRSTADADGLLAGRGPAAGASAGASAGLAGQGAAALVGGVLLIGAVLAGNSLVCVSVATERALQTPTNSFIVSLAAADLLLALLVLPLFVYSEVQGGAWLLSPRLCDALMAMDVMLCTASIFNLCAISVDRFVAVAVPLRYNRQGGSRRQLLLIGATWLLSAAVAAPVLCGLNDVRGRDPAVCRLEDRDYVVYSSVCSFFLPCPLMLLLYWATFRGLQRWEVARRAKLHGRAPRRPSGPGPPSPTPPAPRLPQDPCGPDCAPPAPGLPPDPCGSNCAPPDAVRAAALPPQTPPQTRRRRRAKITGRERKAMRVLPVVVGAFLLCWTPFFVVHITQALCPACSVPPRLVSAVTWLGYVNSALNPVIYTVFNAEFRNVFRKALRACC

hD44 = biological target: T4, hD44 (Homo sapiens, UniProt P21917); assay: biochemical
T4 sequence (P21917 1-419): T1 sequence (P21917 1-419)

D2 receptor = D2 receptor (Homo sapiens, UniProt P14416); conditions: for Emax: CHO
D2 receptor, sequence (P14416 whole entry): as the sequence (P14416 whole entry) above

tardive dyskinesia = conditions: clinical pharmacology, in words; cited from earlier work
schizophrenia [6] = conditions: grade symbols, key not given; cited from earlier work
hD21 Receptor = hD21 Receptor (Homo sapiens, UniProt P14416); assay: Affinity and intrinsic activity of partial dopamine agonists, Table 3
hD21 Receptor, sequence (P14416 whole entry): as the sequence (P14416 whole entry) above

[7] = calculated from the Low/High ratio

hO3 Receptor (Homo sapiens), sequence (P14416 whole entry): as the sequence (P14416 whole entry) above

CCCN1CCCC(c2cccc(O)c2)C1 (single isomer, unassigned; (+)) [(+)-3-PPP]
Intrinsic Activity [1]: 81%
Ki (hO44 Receptor; Ki (nM) ± S.D.): 12 ± 6.5 nM
Intrinsic Activity (hO44 Receptor; [7]): 96%

CCCN(CCc1cccs1)C1CCc2c(O)cccc2C1 (single isomer, unassigned; (+)) [(+)-N-0437]
Intrinsic Activity [1]: 48%
Ratio Low/High [1]: 10
Ki [1]: 4.8 ± 2.3 nM
Intrinsic Activity (hO44 Receptor; [7]): 72%
Ratio Low/High (hO44 Receptor): 40
Ki (hO44 Receptor; read-out: Ki (nM) ± S.D.): 7.7 ± 3.4 nM

CCCN1CCCC(c2cccc(O)c2)C1 (single isomer, unassigned; (-)) [(−)-3-PPP, (−)3-(3-hydroxyphenyl)-N-n-propylpiperidine]
Emax (hD3 (Homo sapiens)): 46%
Duration of efficacy (schizophrenia [2]; antipsychotic efficacy before tolerance): up to 7 days
Antipsychotic effect over the trial ([3]; (−)-3PPP 300 mg bid plus haloperidol 1 mg bid, two weeks): extended longer for the entire two week period of the trial without evidence of tolerance
Change in Total BPRS Score, mean ([3]; Day 3): −1.4
Change in Total BPRS Score, mean ([3]; Day 7): −3.4
Change in Total BPRS Score, mean ([3]; Day 11): −3.3
Change in Total BPRS Score, mean ([3]; Day 14): −4.6
Intrinsic Activity [1]: 46%
Intrinsic Activity % (hD47): 98%
Ki (hD47; high affinity agonist state, [3H]-agonist ligand): 14.3 nM
Acute motor side effects (schizophrenia [4]; clinical application in schizophrenia): not accompanied by any acute motor side effect
Duration of antipsychotic action (schizophrenia [4]; continuous dosing, agonist alone): approximately one week
Effect on L-DOPA-induced dyskinesia [5]: improves L-DOPA-induced dyskinesia in Parkinson's disease
Ki (hD42): 30.9 nM
Emax (hD42; read-out: Intrinsic Activity %): 73%
Ki (hD44): 13.2 nM
Emax (hD44; read-out: Intrinsic Activity %): 97%
Ki (hO44 Receptor; Ki (nM) ± S.D.): 12.2 ± 3.1 nM
Emax (hO44 Receptor; read-out: Intrinsic Activity, hO44 Receptor, calculated from the Low/High ratio): 83%
Emax (D2 receptor; read-out: Intrinsic activity (IA), Example 2): 40%
Emax (D2 receptor; read-out: Intrinsic activity, tested without haloperidol, FIG. 1): 36%
Change of intrinsic activity with increasing concentrations of haloperidol (D2 receptor; varying concentrations of haloperidol, FIG. 1): linear reduction in the intrinsic activity

CN1CCc2cccc3c2[C@@H]1Cc1ccc(O)c(O)c1-3 [(+)-Apo]
Intrinsic Activity (hO44 Receptor; [7]): 55%

CCCN1CCc2cccc3c2[C@@H]1Cc1ccc(O)c(O)c1-3 [(+)-NPA]
Intrinsic Activity [1]: 61%
Intrinsic Activity (hO44 Receptor; [7]): 58%
Ki (hO44 Receptor; read-out: Ki (nM) ± S.D.): 2.3 ± 2 nM

CN1CCc2cccc3c2[C@H]1Cc1ccc(O)c(O)c1-3 [(−)-Apo]
Intrinsic Activity (hO44 Receptor; [7]): 80%

CCCN(CCc1cccs1)[C@H]1CCc2c(O)cccc2C1 [(−)-N-0437]
Intrinsic Activity [1]: 94%
Ratio Low/High [1]: 145
Ki [1]: 0.08 ± 0.04 nM
Intrinsic Activity (hO44 Receptor; [7]): 88%
Ratio Low/High (hO44 Receptor): 106
Ki (hO44 Receptor; read-out: Ki (nM) ± S.D.): 1.1 ± 0.7 nM

CCCN1CCc2cccc3c2[C@H]1Cc1ccc(O)c(O)c1-3 [(−)-NPA]
Intrinsic Activity [1]: 100%
Intrinsic Activity (hO44 Receptor; [7]): 57%
Ki (hO44 Receptor; read-out: Ki (nM) ± S.D.): 0.6 ± 0.2 nM

CN1CCc2cccc3c2[C@H]1Cc1ccc(O)c(O)c1-3 [Apomorphine, apomorphine]
Effect on tardive dyskinesia (tardive dyskinesia): paradoxically improves tardive dyskinesia, both significantly and substantially

CN1C[C@H](CSc2ccccn2)C=C2c3cccc4[nH]cc(c34)C[C@H]21 [CF25-397]
Effect on tardive dyskinesia (tardive dyskinesia): modestly improved dyskinetic symptoms in TD
Antipsychotic (schizophrenia [6]): 0

CN1C[C@H](CN2CC(=O)NC(=O)C2)C=C2c3cccc4[nH]cc(c34)C[C@H]21 [FCE-23884]
Intrinsic Activity (hD21 Receptor): 37.0%
Ki (hD21 Receptor; read-out: Ki (HiAg State), high affinity agonist state): 0.4 nM
Ki (hD21 Receptor; read-out: Ki (LowAg State), low affinity agonist state): 2.17 nM

O=C(CCCN1CCC(O)(c2ccc(Cl)cc2)CC1)c1ccc(F)cc1 [Haloperidol, haloperidol]
Change in Total BPRS Score, mean ([3]; Day 3): −1.0
Change in Total BPRS Score, mean ([3]; Day 7): −0.2
Change in Total BPRS Score, mean ([3]; Day 11): −0.1
Change in Total BPRS Score, mean ([3]; Day 14): −1.1

CCCN1CCc2cccc3c2[C@H]1Cc1ccc(O)c(O)c1-3 [NPA, n-propylnorapomorphine]
Efficacy tolerance observed after (schizophrenia [2]; antipsychotic efficacy tolerance): 24 h

c1cnc(N2CCN(Cc3ccc4c(c3)OCO4)CC2)nc1 [Piribedil (S584), piribedil]
Effect on tardive dyskinesia (tardive dyskinesia): modestly improved dyskinetic symptoms in TD
Antipsychotic (schizophrenia [6]): 0
